Test results published in the supplement of paper PMC11061612.

How the values were obtained:
[1] = system: KY821 (Acute Myeloid Leukemia); assay: Bliss excess, mean over the matrix (fraction); higher = more synergy
How it was run: (§1)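 Cell lines grown in DMEM/F12 or RPMI with 10% FBS were plated in 1536-well plates and held 24 hours at 37°C, 5% CO2 before 72 hours of exposure to two-drug dose matrices, with DMSO typically at 0.2%. CellTiter-Glo 2.0 luminescence gave viability, which was converted to inhibition. Vehicle wells were set to 0 and blank wells to 1. Combination Emax is the second-highest inhibition in the matrix, and Bliss excess is the observed combination effect minus the expected EA + EB − EA·EB, where EA and EB are the single-agent effects.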

[2] = system: IM-95 (Gastric Carcinoma); assay: as above
How it was run: as §1

[3] = system: H9 (T-Cell Non-Hodgkin's Lymphoma); assay: as above
How it was run: as §1

[4] = system: KY821 (Acute Myeloid Leukemia); assay: combination Emax (second highest fraction inhibited in the dose matrix, 72 h); higher = more inhibition; extreme values may be limits of the assay
How it was run: as §1

[5] = system: NCI-H3122 (Lung Adenocarcinoma); assay: as above
How it was run: as §1

[6] = system: KU812 (Chronic Myelogenous Leukemia); assay: as above
How it was run: as §1

[7] = system: IM-95 (Gastric Carcinoma); assay: as above
How it was run: as §1

[8] = system: H9 (T-Cell Non-Hodgkin's Lymphoma); assay: as above
How it was run: as §1
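Throughout, for Bliss excess, mean over the matrix: after 72 h of two-drug dosing.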

| SMILES | combination Emax [5] | combination Emax [6] | other results |
| --- | --- | --- | --- |
| CS(=O)(=O)CCNCc1ccc(-c2ccc3ncnc(Nc4ccc(OCc5cccc(F)c5)c(Cl)c4)c3c2)o1 [Lapatinib] + NC1(c2ccc(-c3nc4ccn5c(=O)[nH]nc5c4cc3-c3ccccc3)cc2)CCC1 [MK-2206] (first compound max 10 µM, 7x7, partner max 10 µM) | 0.653 | 0.917 | Bliss excess [1]: 0.0724; Bliss excess [2]: 0.0488; Bliss excess [3]: -0.247; combination Emax [4]: 0.969; combination Emax [7]: 0.509; combination Emax [8]: 0.94 |
| C=CCn1c(=O)c2cnc(Nc3ccc(N4CCN(C)CC4)cc3)nc2n1-c1cccc(C(C)(C)O)n1 [AZD1775] + CCc1c2c(nc3ccc(O)cc13)-c1cc3c(c(=O)n1C2)COC(=O)[C@]3(O)CC [SN-38] (first compound max 1 µM, partner max 0.3 µM) | 0.853 | 0.87 |  |
| C[C@@H](Nc1cc(F)cc(F)c1)c1cc(C(=O)N(C)C)cc2c(=O)cc(N3CCOCC3)oc12 [AZD8186] + CC(=O)c1c(C)c2cnc(Nc3ccc(N4CCNCC4)cn3)nc2n(C2CCCC2)c1=O [Palbociclib] (first compound max 10 µM, 7x7, partner max 10 µM) | 0.742 | 0.582 |  |
| CN(CCO)CC[C@H](CSc1ccccc1)Nc1ccc(S(=O)(=O)NC(=O)c2ccc(N3CCC([C@@H](O)c4ccccc4-c4ccc(Cl)cc4)CC3)cc2)cc1S(=O)(=O)C(F)(F)F [AZD4320] + CC(=O)O[C@H]1C(=O)[C@@]2(C)[C@H]([C@H](OC(=O)c3ccccc3)[C@]3(O)C[C@H](OC(=O)[C@H](O)[C@@H](NC(=O)c4ccccc4)c4ccccc4)C(C)=C1C3(C)C)[C@]1(OC(C)=O)CO[C@@H]1C[C@@H]2O [Paclitaxel] (first compound max 1 µM, 7x7, partner max 3 µM) | 0.999 | 0.943 |  |
| O=C(c1cc(Cc2n[nH]c(=O)c3ccccc23)ccc1F)N1CCN(C(=O)C2CC2)CC1 [Olaparib] + COc1nnc2ccc(N3CCC(c4ccc(OCCN5CCN(C)C(=O)[C@H]5C)cc4)CC3)nn12 [AZD5153] (first compound max 10 µM, 7x7, partner max 1 µM) | 0.596 | 0.908 |  |
| N#Cc1cnc(Nc2cc(NC[C@H]3CNCCO3)c(C(F)(F)F)cn2)cn1 [SRA737] + O=c1[nH]cc(F)c(=O)[nH]1 [5-Fluorouracil] (first compound max 10 µM, 7x7, partner max 20 µM) | 0.611 | 0.606 |  |
| Cc1nc(-c2cn3c(n2)-c2ccc(-c4cnn(C(C)(C)C(N)=O)c4)cc2OCC3)n(C(C)C)n1 [Taselisib] + O=C(Nc1ccc2[nH]nc(-c3ccncc3)c2c1)[C@@H]1CCN(CC(=O)N2CCN(c3ccc(-c4ncccn4)cc3)CC2)C1 [SCH772984] (first compound max 10 µM, 7x7, partner max 5 µM) | 0.978 | 1 |  |
| CC1(C)CCC(CN2CCN(c3ccc(C(=O)NS(=O)(=O)c4ccc(NCC5CCOCC5)c([N+](=O)[O-])c4)c(Oc4cnc5[nH]ccc5c4)c3)CC2)=C(c2ccc(Cl)cc2)C1 [Venetoclax] + CS(=O)(=O)CCNCc1ccc(-c2ccc3ncnc(Nc4ccc(OCc5cccc(F)c5)c(Cl)c4)c3c2)o1 [Lapatinib] (first compound max 1 µM, 7x7, partner max 10 µM) | 0.232 | 0.831 |  |
| O=C(c1cc(Cc2n[nH]c(=O)c3ccccc23)ccc1F)N1CCN(C(=O)C2CC2)CC1 [Olaparib] + Cc1c2c(nn1C)CSCc1cc(n(C)n1)CSc1cc(c3ccccc3c1)OCCCc1c(C(=O)O)n(C)c3c-2c(Cl)ccc13 [AZD5991] (first compound max 10 µM, 7x7, partner max 1 µM) | 0.315 | 0.784 |  |
| C[C@@H](Nc1cc(F)cc(F)c1)c1cc(C(=O)N(C)C)cc2c(=O)cc(N3CCOCC3)oc12 [AZD8186] + C1CN(CCC1(C(=O)N[C@@H](CCO)C2=CC=C(C=C2)Cl)N)C3=NC=NC4=C3C=CN4 [AZD5363] (first compound max 10 µM, 7x7, partner max 10 µM) | 0.522 | 0.161 |  |
| O=C(c1cc(Cc2n[nH]c(=O)c3ccccc23)ccc1F)N1CCN(C(=O)C2CC2)CC1 [Olaparib] + CN(CC[C@H](CSC1=CC=CC=C1)NC2=C(C=C(C=C2)S(=O)(=O)NC(=O)C3=CC=C(C=C3)N4CCC(CC4)[C@H](C5=CC=CC=C5C6=CC=C(C=C6)Cl)O)S(=O)(=O)C(F)(F)F)CCO [AZD4320] (first compound max 10 µM, 7x7, partner max 1 µM) | 0.223 | 0.862 |  |
| C[C@@H](Oc1cc(-c2cnn(C3CCNCC3)c2)cnc1N)c1c(Cl)ccc(F)c1Cl [Crizotinib] + Cn1cnc2c(F)c(Nc3ccc(Br)cc3Cl)c(C(=O)NOCCO)cc21 [Selumetinib] (first compound max 10 µM, 7x7, partner max 10 µM) | 0.916 | 1 |  |
| O=C(c1cc(Cc2n[nH]c(=O)c3ccccc23)ccc1F)N1CCN(C(=O)C2CC2)CC1 [Olaparib] + CC1(C)CCC(CN2CCN(c3ccc(C(=O)NS(=O)(=O)c4ccc(NCC5CCOCC5)c([N+](=O)[O-])c4)c(Oc4cnc5[nH]ccc5c4)c3)CC2)=C(c2ccc(Cl)cc2)C1 [Venetoclax] (first compound max 10 µM, 7x7, partner max 1 µM) | 0.226 | 0.403 |  |
| Cc1c2c(nn1C)CSCc1cc(n(C)n1)CSc1cc(c3ccccc3c1)OCCCc1c(C(=O)O)n(C)c3c-2c(Cl)ccc13 [AZD5991] + CC(=O)O[C@H]1C(=O)[C@@]2(C)[C@H]([C@H](OC(=O)c3ccccc3)[C@]3(O)C[C@H](OC(=O)[C@H](O)[C@@H](NC(=O)c4ccccc4)c4ccccc4)C(C)=C1C3(C)C)[C@]1(OC(C)=O)CO[C@@H]1C[C@@H]2O [Paclitaxel] (first compound max 1 µM, 7x7, partner max 3 µM) | 0.965 | 0.918 |  |
| N#Cc1cnc(Nc2cc(NC[C@H]3CNCCO3)c(C(F)(F)F)cn2)cn1 [SRA737] + CCc1c2c(nc3ccc(O)cc13)-c1cc3c(c(=O)n1C2)COC(=O)[C@]3(O)CC [SN-38] (first compound max 10 µM, 7x7, partner max 0.3 µM) | 0.857 | 0.799 |  |
| Cc1c2c(nn1C)CSCc1cc(n(C)n1)CSc1cc(c3ccccc3c1)OCCCc1c(C(=O)O)n(C)c3c-2c(Cl)ccc13 [AZD5991] + CS(=O)(=O)CCNCc1ccc(-c2ccc3ncnc(Nc4ccc(OCc5cccc(F)c5)c(Cl)c4)c3c2)o1 [Lapatinib] (first compound max 1 µM, 7x7, partner max 10 µM) | 0.392 | 0.867 |  |
| CN(CCO)CC[C@H](CSc1ccccc1)Nc1ccc(S(=O)(=O)NC(=O)c2ccc(N3CCC([C@@H](O)c4ccccc4-c4ccc(Cl)cc4)CC3)cc2)cc1S(=O)(=O)C(F)(F)F [AZD4320] + CS(=O)(=O)CCNCc1ccc(-c2ccc3ncnc(Nc4ccc(OCc5cccc(F)c5)c(Cl)c4)c3c2)o1 [Lapatinib] (first compound max 1 µM, 7x7, partner max 10 µM) | 0.281 | 0.973 |  |
| Cc1cc2ncnn2cc1Nc1ncc2c(n1)n(C1CCOCC1)c(=O)n2C [AZD7648] + COc1cc([C@@H]2c3cc4c(cc3[C@@H](O[C@@H]3O[C@@H]5CO[C@@H](C)O[C@H]5[C@H](O)[C@H]3O)[C@H]3COC(=O)[C@H]23)OCO4)cc(OC)c1O [Etoposide] (first compound max 10 µM, 7x7, partner max 10 µM) | 0.67 | 0.792 |  |
| C[C@@H](Oc1cc(-c2cnn(C3CCNCC3)c2)cnc1N)c1c(Cl)ccc(F)c1Cl [Crizotinib] + CC1=C(C(=CC=C1)Cl)NC(=O)C2=CN=C(S2)NC3=CC(=NC(=N3)C)N4CCN(CC4)CCO [Dasatinib] (first compound max 10 µM, 7x7, partner max 2 µM) | 0.881 | 1 |  |
